Assay results reported in BindingDB's records for PubMed 39140043 (Usona Institute).

Target: GTPase KRas (Homo sapiens, UniProt P01116)
Experiment: Inhibition of GDP bound KRAS G12V mutant (unknown origin)

GTPase KRas, sequence (P01116 whole entry G12V): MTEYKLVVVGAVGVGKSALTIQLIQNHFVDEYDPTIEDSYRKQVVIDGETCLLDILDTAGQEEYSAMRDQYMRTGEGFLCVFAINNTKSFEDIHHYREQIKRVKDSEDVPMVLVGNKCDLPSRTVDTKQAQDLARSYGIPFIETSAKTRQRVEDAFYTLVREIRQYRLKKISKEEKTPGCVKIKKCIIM

Molecule `C#Cc1c(F)ccc2cc(O)cc(-c3ncc4c(N(C)[C@H]5C[C@@H]5F)nc(OCC56CCCN5CC(=C)C6)nc4c3F)c12` (stereo partly specified) has an IC50 of 0.371 nM.
